Substitutions are numbered along the chain they refer to.
Key:
Assay type in all cases: cell-based
Conditions in all cases: positive = increase, negative = decrease of activity
GluD2-S646P = target: T1, GluD2-S646P (Rattus norvegicus, UniProt Q63226, S646P); assay: TEVC of constitutive current, Xenopus oocytes expressing GluD2-S646P
T1 construct: expressed in transfected cells; host or cells: Xenopus laevis oocytes injected with cRNA
T1 sequence (Q63226 24-1007 S646P): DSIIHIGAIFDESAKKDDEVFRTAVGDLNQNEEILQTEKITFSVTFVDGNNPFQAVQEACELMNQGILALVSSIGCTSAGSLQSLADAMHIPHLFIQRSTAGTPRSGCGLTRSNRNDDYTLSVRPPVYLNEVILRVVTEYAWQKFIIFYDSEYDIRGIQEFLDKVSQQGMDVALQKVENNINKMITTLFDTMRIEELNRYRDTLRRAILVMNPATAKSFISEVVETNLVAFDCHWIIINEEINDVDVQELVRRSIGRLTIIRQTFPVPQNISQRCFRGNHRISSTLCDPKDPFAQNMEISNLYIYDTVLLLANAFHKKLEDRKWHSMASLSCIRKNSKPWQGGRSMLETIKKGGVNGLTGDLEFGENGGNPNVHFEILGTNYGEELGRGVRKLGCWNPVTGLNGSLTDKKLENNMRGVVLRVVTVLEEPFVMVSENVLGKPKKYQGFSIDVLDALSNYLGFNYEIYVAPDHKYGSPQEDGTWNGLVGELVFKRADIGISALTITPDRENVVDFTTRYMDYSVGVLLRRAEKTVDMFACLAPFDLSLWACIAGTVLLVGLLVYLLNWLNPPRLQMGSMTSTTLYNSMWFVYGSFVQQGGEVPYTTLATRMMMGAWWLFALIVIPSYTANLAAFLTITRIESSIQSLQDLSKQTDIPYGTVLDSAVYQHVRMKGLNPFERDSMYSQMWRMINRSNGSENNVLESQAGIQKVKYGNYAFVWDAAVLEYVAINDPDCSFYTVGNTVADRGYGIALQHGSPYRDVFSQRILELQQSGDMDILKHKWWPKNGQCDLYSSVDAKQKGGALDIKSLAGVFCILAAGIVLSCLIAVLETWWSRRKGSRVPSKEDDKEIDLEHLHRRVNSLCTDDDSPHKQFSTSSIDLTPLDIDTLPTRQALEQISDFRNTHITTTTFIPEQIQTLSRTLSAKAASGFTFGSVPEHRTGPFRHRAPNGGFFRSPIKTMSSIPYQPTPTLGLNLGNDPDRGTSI

GluD2-D535E = target: T2, GluD2-D535E (Rattus norvegicus, UniProt Q63226, D535E); assay: TEVC of constitutive current, Xenopus oocytes expressing GluD2-D535E
T2 construct: expressed in transfected cells; host or cells: Xenopus laevis oocytes injected with cRNA
T2 sequence (Q63226 24-1007 D535E): T1 sequence (Q63226 24-1007 S646P) with D512E, P623S

GluD2-R710W = target: T3, GluD2-R710W (Rattus norvegicus, UniProt Q63226, R710W); assay: TEVC of constitutive current, Xenopus oocytes expressing GluD2-R710W
T3 construct: expressed in transfected cells; host or cells: Xenopus laevis oocytes injected with cRNA
T3 sequence (Q63226 24-1007 R710W): T1 sequence (Q63226 24-1007 S646P) with P623S, R687W

| Compound | Pentamidine effect (Baseline −100 μM Pentamidine) (GluD2-S646P; 100 μM pentamidine) | Pentamidine effect (Baseline −100 μM Pentamidine) (GluD2-D535E; 100 μM pentamidine) | Pentamidine effect (Baseline −100 μM Pentamidine) (GluD2-R710W; 100 μM pentamidine) | D-Serine effect (Baseline −10 mM D-Serine) (GluD2-S646P; 10 mM D-serine) | D-Serine effect (Baseline −10 mM D-Serine) (GluD2-D535E; 10 mM D-serine) | D-Serine effect (Baseline −10 mM D-Serine) (GluD2-R710W; 10 mM D-serine) |
| --- | --- | --- | --- | --- | --- | --- |
| N=C(N)c1ccc(OCCCCCOc2ccc(C(=N)N)cc2)cc1 [Pentamidine, pentamidine] | 6.5 ± 5.4 (11) nA | −0.67 ± 1.1 (12) nA | 0.82 ± 1.9 (11) nA | – | – | – |
| N[C@H](CO)C(=O)O [D-serine] | – | – | – | 5.2 ± 6.0 (11) nA | −5.8 ± 2.4 (12) nA | −2.3 ± 0.60 (11) nA |

Reference: PMC10840383, “Clinical features, functional consequences, and rescue pharmacology of missense GRID1 and GRID2 human variants” (Human Molecular Genetics, 2023)
